Our source for the IC50 values is ChEMBL document CHEMBL4699577, “Highly Oxygenated Caryophyllene-Type Sesquiterpenes from a Plant-Associated Fungus, Pestalotiopsis hainanensis, and Their Biosynthetic Gene Cluster” (J Nat Prod, 2020).

One experiment relates to HL-60. Nature of the experiment: Growth inhibition of human HL-60 cells after 96 hrs by MTT assay. It counts as functional, cell-based. The settings on record: HL-60, 96 h.
The test system of the next experiment is THP-1. Briefly: Growth inhibition of human THP-1 cells after 96 hrs by MTT assay. The settings on record: THP-1, 96 h. It counts as functional, cell-based. (In general: Tetrazolium assays rely on reduction of a dye to a coloured formazan, in cell work by metabolically active cells.)

As to `CO[C@@H]1[C@H]2[C@H](O)O[C@@]3([C@@H](OC(C)=O)C/C(C)=C/[C@H]1OC)[C@@H]2CC3(C)C`, the figures for the IC50 in the experiment with HL-60 and with THP-1 were 6.2 µM and 2 µM, respectively.

Usually IC50 stands for the point on the concentration scale where inhibition reaches its midpoint. The low end stands for greater potency, the high end for weaker potency.
